From the OligoGym collection
These antisense oligonucleotides have a phosphorothioate backbone; sugars and methylation of C are not fully specified.

Tests used:
Settings in all cases: ASO
[1] = target: DUSP8
[2] = target: PIK3CB
[3] = target: DUSP9
[4] = target: MAP2K1
Also: test concentration or dose not given here.

Sequence	remaining target (mRNA or protein) (fraction of control) [1]	remaining target (mRNA or protein) (fraction of control) [3]	other results
GAGAGCTTGGCTTTATCGAT	0.68	–	–
AAGCTGTCTGCGGCCAGCAC	0.71	–	–
ACTATGTCTGTCACCAATCC	–	–	remaining target (mRNA or protein) (fraction of control) [2]: 0.52
AGACCCTCCATGGGCGATCG	–	0.45	–
CAGGCTTGCCCTCGCAGAGG	≥ 1	–	–
TTGCTGGCGTTGAGGACGTA	0.45	–	–
ACCTGGCTGCGTGCAGCCGG	≥ 1	–	–
GGCTGCTCCGACGGCCCAGG	≥ 1	–	–
GTGGCACACACCCTTCCTGA	–	≥ 1	–
TGACAACACCAGTGATGGCA	–	0.52	–
CGAGCGGCCCAGACCCTCCA	–	≥ 1	–
GCTGGACCTCGCTCGCGCTC	≥ 1	–	–
CCCAGGGCCGGGACCTGGGC	–	0.98	–
GACTGAAGGTGGCCTCGTAT	0.69	–	–
GGAGAAGGAGCGCTTGAGGC	0.98	–	–
TGCAACACATAATCATAGGG	–	–	remaining target (mRNA or protein) (fraction of control) [2]: ≥ 1
GGCAGGCAGGGCTGGGAGAG	≥ 1	–	–
CACACAGTTCCGGATATACT	–	–	remaining target (mRNA or protein) (fraction of control) [2]: ≥ 1
AGCAGATGTTGACGGAGCTG	≥ 1	–	–
CCGACGGGCTGTCCAGCTTG	0.94	–	–
CACCATGCCCTCCTCGAACT	0.84	–	–
GCCACGCTCAGCGCCCCACC	–	0.94	–
CCCAGGCCCGCCCCGCAGCA	0.66	–	–

Sequence	remaining target (mRNA or protein) (fraction of control) [1]	remaining target (mRNA or protein) (fraction of control) [3]	other results
ACTGGATATAAATCCCAGTG	–	–	remaining target (mRNA or protein) (fraction of control) [2]: ≥ 1
AGGTATGGAGCCATCAGATG	–	–	remaining target (mRNA or protein) (fraction of control) [2]: ≥ 1
CCCGTCGGGCGACGGCGTGC	≥ 1	–	–
AACATTTGGAGTGTCAACAT	–	–	remaining target (mRNA or protein) (fraction of control) [2]: ≥ 1
AAGTTTTCAGGGATGGATGG	–	–	remaining target (mRNA or protein) (fraction of control) [2]: ≥ 1
TCCATGGGCGATCGGCTCCC	–	0.74	–
AGCTGGCCCAGGAAGTTGAA	0.95	–	–
CGGCCCAGACCCTCCATGGG	–	0.57	–
CTTCCCATGAATAGTCAAAC	–	–	remaining target (mRNA or protein) (fraction of control) [2]: 0.53
TGTAATATTATGTCTCCAGT	–	–	remaining target (mRNA or protein) (fraction of control) [2]: 0.9
CTGGAAGAAAAGGTCTGACA	–	–	remaining target (mRNA or protein) (fraction of control) [2]: ≥ 1
CCATAACATCTGCTTAATAT	–	–	remaining target (mRNA or protein) (fraction of control) [2]: ≥ 1
GACCCCATCTCCTCCGGCGG	–	0.23	–
CTCCTGCGAGTGGCGCTCCT	–	≥ 1	–
CCACGGGCACTGGACCGGGC	–	0.5	–
CTCATGGAGTCGCGGTCAGC	–	0.86	–
CCCAGCTCACTGATCTTC	–	–	remaining target (mRNA or protein) (fraction of control) [4]: 0.89
TCTCGCTTCCTCCCTCGT	–	–	remaining target (mRNA or protein) (fraction of control) [4]: 0.74
GCCCAGACCCTCCATGGGCG	–	0.92	–
AAGAACCGCGACAGGTTCTG	–	0.83	–
AGGAGCAGGAGCCGCGGCCG	–	0.7	–
ACCCTCCATGGGCGATCGGC	–	0.43	–
CTCAGGCCGCCCTCCCTGGC	0.65	–	–

Sequence	remaining target (mRNA or protein) (fraction of control) [1]	remaining target (mRNA or protein) (fraction of control) [3]	other results
TCACCTTGCCCTGCTGCAGC	0.33	–	–
TTTCACAGTAGTTGTCGTTG	≥ 1	–	–
GCTTGTGGGAGACCTTGA	–	–	remaining target (mRNA or protein) (fraction of control) [4]: 0.65
CGCCCGCCCGGCCGAAGGGC	0.86	–	–
TTCCCGAGGTACCTCCAACT	–	–	remaining target (mRNA or protein) (fraction of control) [2]: 0.7
CCAGGCAGGAGCGCGCGCAC	–	0.62	–
GAGCTCGAGGACCACCCGCA	0.89	–	–
GTTGGTCTCCGCAGAGCT	–	–	remaining target (mRNA or protein) (fraction of control) [4]: 0.37
CATCTGGAGGAGGGATGG	–	–	remaining target (mRNA or protein) (fraction of control) [4]: 0.71
GGGCAAAAGGAAATCCACAG	–	–	remaining target (mRNA or protein) (fraction of control) [2]: ≥ 1
AGCCCCAGTGATCCCGTCAA	–	≥ 1	–
ATTAGGACGGCAGCCCGCGT	–	≥ 1	–
AGTCGATGAGCTGCCCGC	–	–	remaining target (mRNA or protein) (fraction of control) [4]: 0.24
GGCCAAATCTGAAGCAGCGC	–	–	remaining target (mRNA or protein) (fraction of control) [2]: ≥ 1
CAAAATCCACTTCCTCAG	–	–	remaining target (mRNA or protein) (fraction of control) [4]: 0.28
GAGCCGGTCCCCAGCCATGG	≥ 1	–	–
AGGCCATGGATGTGGGCGGC	–	0.57	–
CCCATGAAGTTGAAGTTGGG	–	0.44	–
GGGCGCTCCGCTCTGCTCGG	–	0.8	–
AGGAGGCCCAAAAGCGAC	–	–	remaining target (mRNA or protein) (fraction of control) [4]: 0.65
AGAGGTGAGGCAGGATGCGG	≥ 1	–	–
CTCTGTGCATGATCTTGT	–	–	remaining target (mRNA or protein) (fraction of control) [4]: 0.51
